Measurements from patent US20220370322A1, “UV BLOCKING COMPOSITION COMPRISING RED ALGAE-DERIVED FLORIDOSIDE AND AMINE GROUP-CONTAINING COMPOUND” (ATHENA CO., LTD., priority 2019, published 2022).
Several values for one entry are separate records, joined by “and”; a condition that tells them apart may be missing. Identical values can stand only once.

How the values were obtained:
Raw 264.7 cells = assay: Cytotoxicity test (Cell Counting Kit-8); type: cell-based; conditions: for Viability (%): 24 hours, CCK-8; for Absorbance AVERAGE: absorbance at 450 nm, mean of three; for Absorbance: single replicates, measured at 450 nm
Description: A cytotoxicity test was performed on the sample, which had been identified to be floridoside, by using the Cell Counting Kit-8 kit (DOJINDO, CK04-05).
Raw 264.7 cells were cultured at 1×10^4 cells/well in a DMEM medium containing 10% FBS in a 96-well plate at 37° C. in 5% CO2 incubator for 24 hours, and then treated with a drug. After the cells were cultured at 37° C. in the 5% CO2 incubator for 24 hours, CCK-8 solution was added, followed by incubation at 37° C. for 2 hours, and then the absorbance was measured at 450 nm.

skin = assay: Primary patch test for human body application (skin irritation, ICDRG criteria); type: in vivo; design: key to Mean score of the skin reaction: mean of ICDRG-graded reactions via skin reaction formula; conditions: 31 subjects
Description: A primary patch test for human body application was performed on the sample.
Subjects of the test were determined for skin irritation by a dermatologist a total of 4 times (the date of a patch, the date of removal of the patch, and 24 hours and 120 hours after removal of the patch) during the test period.
The skin patch test was performed using the Van der Bend chamber (Van der Bend, Brielle, the Netherlands). For each of 31 subjects, the sample was applied between the shoulder blade and the waist line on the basis of the spin on the back by using the Van der Bend chamber.
A site of the test was washed with distilled water and dried, and then the sample was dissolved in 10% distilled water. Thereafter, 35 μl was dropped in the Van der Bend chamber, which was then put and fixed on the site of the test. The sample was patched on the skin for 48 hours, and after the removal of the patch, the site of the test was marked with a marking pen, and the site of the test was observed after 30 minutes, 24 hours, and 120 hours.
With respect to the skin reaction, the degrees of irritation were classified according to the evaluation criteria of the International Contact Dermatitis Research Group (ICDRG) as shown in Table 2 below.
The mean score of the skin reaction was calculated by the skin reaction calculation formula, and then the presence or absence of irritation was determined according to the decision table of the skin patch test.

In the case of `OCC(CO)O[C@H]1O[C@H](CO)[C@H](O)[C@H](O)[C@H]1O` [Floridoside, 2-O-α-D-galactopyranosylglycerol], the “Viability (%)” value (Raw 264.7 cells; 1 ppm, Raw 264.7 cells) is reported as 83%, the “Absorbance AVERAGE” value (Raw 264.7 cells; 1 ppm) is reported as 2.594 and the Absorbance (Raw 264.7 cells; 1 ppm) is reported as 2.73 and 2.59 and 2.47. The “Viability (%)” value (Raw 264.7 cells; 10 ppm, Raw 264.7 cells) was 88%, the “Absorbance AVERAGE” value (Raw 264.7 cells; 10 ppm) was 2.746 and the Absorbance (Raw 264.7 cells; 10 ppm) was 2.69 and 2.73 and 2.81. For the same molecule, the “Viability (%)” value (Raw 264.7 cells; 100 ppm, Raw 264.7 cells) was 88%, the “Absorbance AVERAGE” value (Raw 264.7 cells; 100 ppm) was 2.759 and the Absorbance (Raw 264.7 cells; 100 ppm) was 2.68 and 2.79 and 2.81. For the same molecule, the “Viability (%)” value (Raw 264.7 cells; 500 ppm, Raw 264.7 cells) was 89%, the “Absorbance AVERAGE” value (Raw 264.7 cells; 500 ppm) was 2.790 and the Absorbance (Raw 264.7 cells; 500 ppm) was 2.72 and 2.8 and 2.85. For the same molecule, the “Viability (%)” value (Raw 264.7 cells; 1000 ppm, Raw 264.7 cells) was 89%, the “Absorbance AVERAGE” value (Raw 264.7 cells; 1000 ppm) was 2.781 and the Absorbance (Raw 264.7 cells; 1000 ppm) was 2.75 and 2.77 and 2.82. The Cell protective effect (Raw 264.7 cells; Raw 264.7 cells, 1-1000 ppm, conclusion in words) was “excellent cell protective effect”, the “Determination (skin patch test)” value (skin; decision table of the skin patch test) was “No irritation” and the “Mean score of the skin reaction” value (skin; skin reaction calculation formula) was 0.00. The “Degree of reaction + (first line), number of subjects” value (“Degree of reaction + (first line)” below) (skin; After 30 minutes) was 0, the “Degree of reaction + (second line), number of subjects” value (“Degree of reaction + (second line)” for short) (skin; After 30 minutes) was 0 and the “Degree of reaction +++, number of subjects” value (shortened to “Degree of reaction +++”) (skin; After 30 minutes) was 0. For the same molecule, the “Degree of reaction ++, number of subjects” value (skin; After 30 minutes) was 0, the “Degree of reaction + (first line)” value (skin; After 24 hours) was 0 and the “Degree of reaction + (second line)” value (skin; After 24 hours) was 0. The “Degree of reaction +++” value (skin; After 24 hours) was 0, the “Degree of reaction ++, number of subjects” value (skin; After 24 hours) was 0 and the “Degree of reaction + (first line)” value (skin; After 120 hours) was 0. For the same molecule, the “Degree of reaction + (second line)” value (skin; After 120 hours) was 0, the “Degree of reaction +++” value (skin; After 120 hours) was 0 and the “Degree of reaction ++, number of subjects” value (skin; After 120 hours) was 0.
